Tested on: strains of Enterobacteriaceae producing various carbapenemases (class A, D and B; 104 strains)
Assay: Antibiotics potentiation by Compound 27 (MIC; meropenem, doripenem, ertapenem, cefepime)
Type: cell-based
Conditions: + 27 = with Compound 27 at fixed 4 μg/ml

With `COc1ccc2c(c1C(=O)O)OB(O)C(Sc1nnc(N)s1)C2` (stereo not shown) [C + 27] the MIC (strain KP1081 Klebsiella pneumoniae (NDM-1, TEM-1, SHV-11, CMY-6, CTX-M-15)) was “Y (MIC of 1 μg/mL to 10 μg/mL)”, the MIC (strain KP1082 Klebsiella pneumoniae (KPC-2, SHV-1)) was “X (MIC of less than 1 μg/mL)” and the MIC (strain KP1083 Klebsiella pneumoniae (KPC-3, SHV-1, TEM-1)) was “X (MIC of less than 1 μg/mL)”. The MIC (strain KP1084 Klebsiella pneumoniae (KPC-3, SHV-11, TEM-1)) was “Y (MIC of 1 μg/mL to 10 μg/mL)”, the MIC (strain KP1086 Klebsiella pneumoniae (OXA-48, CTX-M-15, TEM, SHV)) was “Z (MIC of greater than 10 μg/mL)” and the MIC (strain KP1087 Klebsiella pneumoniae (KPC-2, CTX-M-15, SHV-11, TEM-1)) was “Y (MIC of 1 μg/mL to 10 μg/mL)”. The MIC (strain KP1088 Klebsiella pneumoniae (KPC-3, SHV-11, TEM-1)) was “X (MIC of less than 1 μg/mL)”, the MIC (strain KP1089 Klebsiella pneumonias (OXA-181, CTX-M-15, TEM, SHV)) was “Y (MIC of 1 μg/mL to 10 μg/mL)” and the MIC (strain KP1095 Klebsiella pneumoniae (KPC-2 TEM-1 SHV-1)) was “X (MIC of less than 1 μg/mL)”. For the same compound, the MIC (strain KP1096 Klebsiella pneumoniae (KPC-2 TEM-181 SHV-11)) was “X (MIC of less than 1 μg/mL)”, the MIC (strain KP1097 Klebsiella pneumonias (IMP-1)) was “X (MIC of less than 1 μg/mL)” and the MIC (strain KP1098 Klebsiella pneumoniae (IMP-26)) was “Y (MIC of 1 μg/mL to 10 μg/mL)”. For the same compound, the MIC (strain KP1104 Klebsiella pneumoniae (KPC TEM)) was “X (MIC of less than 1 μg/mL)”, the MIC (strain KP1105 Klebsiella pneumoniae (KPC TEM SHV)) was “X (MIC of less than 1 μg/mL)” and the MIC (strain KP1159 Klebsiella pneumoniae (SHV-1(2b); CTX-M-15; IMP-4)) was “X (MIC of less than 1 μg/mL)”. For the same compound, the MIC (strain KP1160 Klebsiella pneumoniae (SHV-28(2be); CTX-M-15; IMP-26)) was “X (MIC of less than 1 μg/mL)”, the MIC (strain KP1161 Klebsiella pneumoniae (NDM-1)) was “X (MIC of less than 1 μg/mL)” and the MIC (strain KP1164 Klebsiella pneumoniae (SHV-12(2be); VIM-1)) was “X (MIC of less than 1 μg/mL)”. For the same compound, the MIC (strain KP1165 Klebsiella pneumoniae (SHV-11(2b); CTX-M-15; VIM-27)) was “Z (MIC of greater than 10 μg/mL)”, the MIC (strain KP1166 Klebsiella pneumoniae (SHV-5(2be); VIM-26)) was “Z (MIC of greater than 10 μg/mL)” and the MIC (strain KP1167 Klebsiella pneumoniae (SHV-12(2be); VIM-1)) was “X (MIC of less than 1 μg/mL)”. The MIC (strain KP1169 Klebsiella pneumoniae (SHV-11(2b); VIM-1)) was “X (MIC of less than 1 μg/mL)”, the MIC (strain KP1170 Klebsiella pneumoniae (SHV-11(2b); CTX-M-15; NDM-1)) was “X (MIC of less than 1 μg/mL)” and the MIC (strain KP1172 Klebsiella pneumoniae (SHV-31(2be); DHA-1; VIM-1)) was “X (MIC of less than 1 μg/mL)”. The MIC (strain KP1173 Klebsiella pneumoniae (TEM-33(2br); CTX-M-15; IMP-1)) was “X (MIC of less than 1 μg/mL)”, the MIC (strain KP1174 Klebsiella pneumoniae (CTX-M-14; IMP-1)) was “X (MIC of less than 1 μg/mL)” and the MIC (strain KP1175 Klebsiella pneumoniae (SHV-OSBL(2b); VIM-1)) was “X (MIC of less than 1 μg/mL)”. The MIC (strain KP1177 Klebsiella pneumoniae (SHV-OSBL(2b), TEM-OSBL(2b); CTX-M-15; NDM-1)) was “X (MIC of less than 1 μg/mL)”, the MIC (strain KP1178 Klebsiella pneumoniae (SHV-OSBL(2b;) TEM-OSBL(2b); CTX-M-15; NDM-1)) was “X (MIC of less than 1 μg/mL)” and the MIC (strain KP1179 Klebsiella pneumoniae (SHV-12(2be), TEM-OSBL(2b); CTX-M-15; NDM-7)) was “X (MIC of less than 1 μg/mL)”. The MIC (strain KP1180 Klebsiella pneumoniae (SHV-OSBL(2b), TEM-OSBL(2b); CTX-M-15; DHA-1; IMP-26)) was “X (MIC of less than 1 μg/mL)”, the MIC (strain KP1181 Klebsiella pneumoniae (SHV-OSBL(2b); CTX-M-15; IMP-26)) was “X (MIC of less than 1 μg/mL)” and the MIC (strain KP1183 Klebsiella pneumoniae (SHV-OSBL(2b), TEM-OSBL(2b); CTX-M-15; NDM-1)) was “X (MIC of less than 1 μg/mL)”. The MIC (strain KP1184 Klebsiella pneumoniae (SHV-OSBL(2b); IMP-1)) was “X (MIC of less than 1 μg/mL)”, the MIC (strain KP1185 Klebsiella pneumoniae (SHV-OSBL(2b), TEM-OSBL(2b); IMP-4)) was “Y (MIC of 1 μg/mL to 10 μg/mL)” and the MIC (strain KP1186 Klebsiella pneumoniae (CTX-M-15; NDM-1)) was “Y (MIC of 1 μg/mL to 10 μg/mL)”. For the same compound, the MIC (strain KP1187 Klebsiella pneumoniae (SHV-55(2be), TEM-OSBL(2b); CTX-M-15; NDM-1)) was “X (MIC of less than 1 μg/mL)”, the MIC (strain KP1188 Klebsiella pneumoniae (SHV-OSBL(2b); CTX-M-15; NDM-1)) was “Y (MIC of 1 μg/mL to 10 μg/mL)” and the MIC (strain KP1189 Klebsiella pneumoniae (TEM-OSBL(2b); CTX-M-15; CTX-M-27; NDM-1)) was “X (MIC of less than 1 μg/mL)”. The MIC (strain KPM1123 Klebsiella pneumoniae (KPC-2 TEM SHV)) was “X (MIC of less than 1 μg/mL)”, the MIC (strain KPM1202 Klebsiella pneumoniae (KPC SHV TEM)) was “X (MIC of less than 1 μg/mL)” and the MIC (strain KPM1203 Klebsiella pneumoniae (KPC SHV TEM)) was “X (MIC of less than 1 μg/mL)”. The MIC (strain KPM1344 Klebsiella pneumoniae (VIM-1)) was “X (MIC of less than 1 μg/mL)”, the MIC (strain KPM1345 Klebsiella pneumoniae (VIM-1 SHV)) was “X (MIC of less than 1 μg/mL)” and the MIC (strain KPM1347 Klebsiella pneumoniae (NDM-1 SHV CTX-M-15)) was “X (MIC of less than 1 μg/mL)”. For the same compound, the MIC (strain KX1017 Klebsiella oxytoca (KPC-2, OXA-2, SHV-30)) was “X (MIC of less than 1 μg/mL)”, the MIC (strain KX1018 Klebsiella oxytoca (KPC-2, SHV-40, OXY-1)) was “X (MIC of less than 1 μg/mL)” and the MIC (strain KX1019 Klebsiella oxytoca (KPC-2, OXA-2)) was “X (MIC of less than 1 μg/mL)”. For the same compound, the MIC (strain PM1024 Proteus mirabilis (TEM-1(2b); CMY-16; VIM-1)) was “X (MIC of less than 1 μg/mL)”, the MIC (strain PM1026 Proteus mirabilis (DHA-1; IMP-26)) was “X (MIC of less than 1 μg/mL)” and the MIC (strain PM1027 Proteus mirabilis (VIM-5)) was “X (MIC of less than 1 μg/mL)”. The MIC (strain SM1023 Serratia marcescens (VIM-4)) was “Y (MIC of 1 μg/mL to 10 μg/mL)”.

— US10206937B2, “Boronic acid derivatives and therapeutic uses thereof” (Qpex Biopharma, Inc., priority 2014, dated 2019)
